From patent publication US10208059B2, “Heterocyclic modulators of HIF activity for treatment of disease” (Board of Regents, University of Texas System, priority 2012, dated 2019)

system: 293T-HRE-GFP-luc cells; assay: Cell-based reporter assay for IC50 determinations; conditions: hypoxia 6 hrs (1% O2), luminescence, read-out: IC50 Classification
Method in brief: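 IC50 comes from a four-parameter logistic fit of luminescence from HRE-GFP-luc 293T cells. Compounds (1:3 series, 1:50 medium dilution) were preincubated 30 min under normoxia, followed by 6 h at 1% O2, 5% CO2, 37 °C, before Steadylite luciferase detection.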

COCCCNc1nccc(Cn2nc(-c3nc(-c4ccc(OC(F)(F)F)cc4)no3)nc2C)n1 [Example 117, N-(3-methoxypropyl)-4-((5-methyl-3-(3-(4-(trifluoromethoxy)phenyl)-1,2,4-oxadiazol-5-yl)-1H-1,2,4-triazol-1-yl)methyl)pyrimidin-2-amine] and COCCCOc1ccc(Cn2nc(-c3nc(-c4ccc(OC(F)(F)F)cc4)no3)nc2C)cn1 [Example 129, 2-(3-methoxypropoxy)-5-[(5-methyl-3-{3-[4-(trifluoromethoxy)phenyl]-1,2,4-oxadiazol-5-yl}-1H-1,2,4-triazol-1-yl)methyl]pyridine] fall in the same range of IC50: 100 to 1000 nM for the first, 100 to 1000 nM for the second.

First: Cc1nc(-c2nc(-c3ccc(OC(F)(F)F)cc3)no2)nn1Cc1cccc(C(N)=O)c1 [Example 118, 3-((5-methyl-3-(3-(4-(trifluoromethoxy)phenyl)-1,2,4-oxadiazol-5-yl)-1H-1,2,4-triazol-1-yl)methyl)benzamide]
Second: Cc1nc(-c2nc(-c3ccc(OC(F)(F)F)cc3)no2)nn1Cc1cccc(C(=O)O)c1 [Example 119, 3-((5-methyl-3-(3-(4-(trifluoromethoxy)phenyl)-1,2,4-oxadiazol-5-yl)-1H-1,2,4-triazol-1-yl)methyl)benzoic acid]
The IC50 of the first is lower: under 100 nM for the first, 100 to 1000 nM for the second.

CNC(=O)c1cccc(Cn2nc(-c3nc(-c4ccc(OC(F)(F)F)cc4)no3)nc2C)c1 [Example 120, N-methyl-3-[(5-methyl-3-{3-[4-(trifluoromethoxy)phenyl]-1,2,4-oxadiazol-5-yl}-1H-1 2 4-triazol-1-yl)methyl]benzamide] and Cc1nc(-c2nc(-c3ccc(OC(F)(F)F)cc3)no2)nn1Cc1cccc(C(=O)NC(C)C)c1 [Example 122, 3-[(5-methyl-3-{3-[4-(trifluoromethoxy)phenyl]-1,2,4-oxadiazol-5-yl}-1H-1,2,4-triazol-1-yl)methyl]-N-(propan-2-yl)benzamide] cannot be ordered by IC50: under 100 nM for the first, under 100 nM for the second.

First: Cc1nc(-c2nc(-c3ccc(OC(F)(F)F)cc3)no2)nn1Cc1ccnc(N2CCCC2)n1 [Example 121, 4-[(5-methyl-3-{3-[4-(trifluoromethoxy)phenyl]-1,2,4-oxadiazol-5-yl}-1H-1,2,4-triazol-1-yl)methyl]-2-(pyrrolidin-1-yl)pyrimidine]
Second: Cc1nc(-c2nc(-c3ccc(OC(F)(F)F)cc3)no2)nn1Cc1cccc(S(=O)(=O)N2CCCC2)c1 [Example 133, 5-(5-methyl-1-{[3-(pyrrolidine-1-sulfonyl)phenyl]methyl}-1H-1,2,4-triazol-3-yl)-3-[4-(trifluoromethoxy)phenyl]-1,2,4-oxadiazole]
The IC50 of the first is higher: 100 to 1000 nM for the first, under 100 nM for the second. The second is the more potent here.

Cc1nc(-c2nc(-c3ccc(OC(F)(F)F)cc3)no2)nn1Cc1cccc(C(=O)N2CC(O)C2)c1 [Example 123, 1-{3-[(5-methyl-3-{3-[4-(trifluoromethoxy)phenyl]-1,2,4-oxadiazol-5-yl}-1H-1,2,4-triazol-1-yl)methyl]benzoyl}azetidin-3-ol] and Cc1nc(-c2nc(-c3ccc(OC(F)(F)F)cc3)no2)nn1Cc1cccc(C(=O)NC2CC2)c1 [Example 124, N-cyclopropyl-3-[(5-methyl-3-{3-[4-(trifluoromethoxy]phenyl]-1,2,4-oxadiazol-5-yl}-1H-1,2,4-triazol-1-yl)methyl]benzamide] cannot be ordered by IC50: under 100 nM for the first, under 100 nM for the second.

Cc1nc(-c2nc(-c3ccc(OC(F)(F)F)cc3)no2)nn1Cc1cccc(C(=O)NC(C)(C)CO)c1 [Example 125, N-(1-hydroxy-2-methylpropan-2-yl)-3-[(5-methyl-3-{3-[4-(trifluoromethoxy)phenyl]-1,2,4-oxadiazol-5-yl}-1H-1,2,4-triazol-1-yl)methyl]benzamide] and Cc1nc(-c2nc(-c3ccc(OC(F)(F)F)cc3)no2)nn1Cc1cccc(S(=O)(=O)NCC(C)(C)O)c1 [Example 138, 2-hydroxy-2-methyl-S-{3-[(5-methyl-3-{3-[4-(trifluoromethoxy)phenyl]-1,2,4-oxadiazol-5-yl}-1H-1,2,4-triazol-1-yl)methyl]phenyl}propane-1-sulfonamido] cannot be ordered by IC50: under 100 nM for the first, under 100 nM for the second.

Cc1nc(-c2nc(-c3ccc(OC(F)(F)F)cc3)no2)nn1Cc1cccc(OCCC(C)(C)O)c1 [Example 126, 2-methyl-4-{3-[(5-methyl-3-{3-[4-(trifluoromethoxy)phenyl]-1,2,4-oxadiazol-5-yl}-1H-1,2,4-triazol-1-yl)methyl]phenoxy}butan-2-ol] and Cc1nc(-c2nc(-c3ccc(OC(F)(F)F)cc3)no2)nn1Cc1cccc(OCCCS(C)(=O)=O)c1 [Example 144, 5-(1-([3-(3-methanesulfonylpropoxy)phenyl]methyl)-5-methyl-1H-1,2,4-triazol-3-yl)-3-[4-(trifluoromethoxy)phenyl]-1,2,4-oxadiazole] cannot be ordered by IC50: under 100 nM for the first, under 100 nM for the second.

First: Cc1nc(-c2nc(-c3ccc(OC(F)(F)F)cc3)no2)nn1Cc1ccc(S(C)(=O)=O)cc1 [Example 127, 5-{1-[(4-methanesulfonylphenyl)methyl]-5-methyl-1H-1,2,4-triazol-3-yl}-3-[4-(trifluoromethoxy)phenyl]-1,2,4-oxadiazole]
Second: CNS(=O)(=O)c1cccc(Cn2nc(-c3nc(-c4ccc(OC(F)(F)F)cc4)no3)nc2C)c1 [Example 136, N-methyl-3-[(5-methyl-3-{3-[4-(trifluoromethoxy)phenyl]-1,2,4-oxadiazol-5-yl}-1H-1,2,4-triazol-1-yl)methyl]benzene-1-sulfonamide]
The IC50 of the first is higher: 100 to 1000 nM for the first, under 100 nM for the second. The second is the more potent here.

Cc1nc(-c2nc(-c3ccc(OC(F)(F)F)cc3)no2)nn1Cc1ccc(=O)n(CCN(C)C)c1 [Example 128, 1-[2-(dimethylamino)ethyl]-5-[(5-methyl-3-{3-[4-(trifluoromethoxy)phenyl]-1,2,4-oxadiazol-5-yl}-1H-1,2,4-triazol-1-yl)methyl]-1,2-dihydropyridin-2-one] and COCCCn1cc(Cn2nc(-c3nc(-c4ccc(OC(F)(F)F)cc4)no3)nc2C)ccc1=O [Example 140, 1-(3-methoxypropyl)-5-[(5-methyl-3-{3-[4-(trifluoromethoxy)phenyl]-1,2,4-oxadiazol-5-yl}-1H-1,2,4-triazol-1-yl)methyl]-1,2-dihydropyridin-2-one] fall in the same range of IC50: 100 to 1000 nM for the first, 100 to 1000 nM for the second.

Cc1nc(-c2nc(-c3ccc(OC(F)(F)F)cc3)no2)nn1Cc1cccc(S(=O)(=O)NC2CC2)c1 [Example 130, N-cyclopropyl-3-[(5-methyl-3-{3-[4-(trifluoromethoxy)phenyl]-1,2,4-oxadiazol-5-yl}-1H-1,2,4-triazol-1-yl)methyl]benzene-1-sulfonamide] and Cc1nc(-c2nc(-c3ccc(OC(F)(F)F)cc3)no2)nn1Cc1cccc(S(=O)(=O)NCCO)c1 [Example 131, 2-hydroxy-S-(3-[(5-methyl-3-{3-[4-(trifluoromethoxy)phenyl]-1,2,4-oxadiazol-5-yl}-1H-1,2,4-triazol-1-yl)methyl]phenyl}ethane-1-sulfonamido] cannot be ordered by IC50: under 100 nM for the first, under 100 nM for the second.

First: COC(=O)[C@@H](NS(=O)(=O)c1cccc(Cn2nc(-c3nc(-c4ccc(OC(F)(F)F)cc4)no3)nc2C)c1)C(C)C [Example 132, methyl (2S)-3-methyl-2-{3-[(5-methyl-3-{3-[4-(trifluoromethoxy)phenyl]-1,2,4-oxadiazol-5-yl}-1H-1,2,4-triazol-1-yl)methyl]benzenesulfonamido}butanoate]
Second: COC(=O)CNS(=O)(=O)c1cccc(Cn2nc(-c3nc(-c4ccc(OC(F)(F)F)cc4)no3)nc2C)c1 [Example 134, methyl 2-{3-[(5-methyl-3-{3-[4-(trifluoromethoxy)phenyl]-1,2,4-oxadiazol-5-yl}-1H-1,2,4-triazol-1-yl)methyl]benzenesulfonamido}acetate]
The IC50 of the first is higher: 100 to 1000 nM for the first, under 100 nM for the second.

COc1cc(Cn2nc(-c3nc(-c4ccc(OC(F)(F)F)cc4)no3)nc2C)ccn1 [Example 135, 2-methoxy-4-[(5-methyl-3-{3-[4-(trifluoromethoxy)phenyl]-1,2,4-oxadiazol-5-yl}-1H-1,2,4-triazol-1-yl)methyl]pyridine] and Cc1nc(-c2nc(-c3ccc(OC(F)(F)F)cc3)no2)nn1Cc1ccnc(OCCN(C)C)c1 [Example 143, dimethyl[2-({4-[(5-methyl-3-{3-[4-(trifluoromethoxy)phenyl]-1,2,4-oxadiazol-5-yl}-1H-1,2,4-triazol-1-yl)methyl]pyridin-2-yl}oxy)ethyl]amine] fall in the same range of IC50: 100 to 1000 nM for the first, 100 to 1000 nM for the second.

Compared with CCCNS(=O)(=O)c1cccc(Cn2nc(-c3nc(-c4ccc(OC(F)(F)F)cc4)no3)nc2C)c1 [Example 137, 3-[(5-methyl-3-{3-[4-(trifluoromethoxy)phenyl]-1,2,4-oxadiazol-5-yl}-1H-1,2,4-triazol-1-yl)methyl]-N-propylbenzene-1-sulfonamide], Cc1nc(-c2nc(-c3ccc(OC(F)(F)F)cc3)no2)nn1Cc1cccc(S(=O)(=O)NCC(N)=O)c1 [Example 139, 2-{3-[(5-methyl-3-{3-[4-(trifluoromethoxy)phenyl]-1,2,4-oxadiazol-5-yl}-1H-1,2,4-triazol-1-yl)methyl]benzenesulfonamido}acetamide] is higher in IC50: under 100 nM for the first, 100 to 1000 nM for the second.

First: Cc1nc(-c2nc(-c3ccc(OC(F)(F)F)cc3)no2)nn1Cc1ccnc(OCCCO)c1 [Example 141, 3-({4-[(5-methyl-3-{3-[4-(trifluoromethoxy)phenyl]-1,2,4-oxadiazol-5-yl}-1H-1,2,4-triazol-1-yl)methyl]pyridin-2-yl}oxy)propan-1-ol]
Second: COCCCn1ccc(Cn2nc(-c3nc(-c4ccc(OC(F)(F)F)cc4)no3)nc2C)cc1=O [Example 142, 1-(3-methoxypropyl)-4-[(5-methyl-3-{3-[4-(trifluoromethoxy)phenyl]-1,2,4-oxadiazol-5-yl}-1H-1,2,4-triazol-1-yl)methyl]-1,2-dihydropyridin-2-one]
The IC50 of the first is lower: under 100 nM for the first, 100 to 1000 nM for the second. The first is the more potent here.

Work on Cc1nc(-c2nc(-c3ccc(OC(F)(F)F)cc3)no2)nn1Cc1cccc(N2CCNC(=O)C2)c1 [Example 145, 4-{3-[(5-methyl-3-{3-[4-(trifluoromethoxy)phenyl]-1,2,4-oxadiazol-5-yl}-1H-1,2,4-triazol-1-yl)methyl]phenyl]piperazin-2-one] yielded an IC50 of under 100 nM.
